According to patent US7109185B2, “Pharmaceutical formulations comprising indolinone derivatives” (Sugen, Inc., priority 2001, dated 2006):

Columns and labels:
[1] = test system: vascular endothelial growth factor receptor (Flk-1/KDR); conditions: Fong et al. (1999) Cancer Res. 59:99–106; cited from earlier work
[2] = Plasma Stability Test: conversion of prodrug to drug after IV administration to dogs, HPLC analysis of blood plasma; assay type: in vivo; conditions: IV at 2 mg/mL, blood plasma followed for 4 hours
Protocol: The prodrug (3Z)-3-[(3,5-dimethyl-1H-pyrrol-2-yl)-methylidene]-1-(1-pyrrolidinylmethyl)-1,3-dihydro-2H-indol-2-one was administered IV at 2 mg/mL to dogs. Levels of both prodrug and drug (3(Z)-3-[(3,5-dimethyl-1H-pyrrol-2-yl)-methylidene]-1,3-dihydro-2H-indol-2-one) were followed by HPLC analysis of blood plasma for 4 hours following dosing.

[3] = Hydrolysis (pH stability profile) at pH 7.2 and 7.6; assay type: physicochemical; conditions: for half-life: buffer, read-out: Half life, t1/2 (hydrolysis)
From the text: (3Z)-3-[(3,5-Dimethyl-1H-pyrrol-2-yl)-methylidene]-1-(1-pyrrolidinylmethyl)-1,3-dihydro-2H-indol-2-one is a Mannich base and is designed to hydrolyse to 3-(3,5-dimethyl-1H-pyrrol-2-ylmethylene)-1,3-dihydro-indol-2-one at physiological pH. The stability of (3Z)-3-[(3,5-dimethyl-1H-pyrrol-2-yl)-methylidene]-1-(1-pyrrolidinylmethyl)-1,3-dihydro-2H-indol-2-one is higher at a lower pH. […] The pH stability profile of (3Z)-3-[(3,5-dimethyl-1H-pyrrol-2-yl)-methylidene]-1-(1-pyrrolidinylmethyl)-1,3-dihydro-2H-indol-2-one at pH 7.2 and pH 7.6 is tabulated in table 1.

Compound: Cc1cc(C)c(C=C2C(=O)Nc3ccccc32)[nH]1 [3-(3,5-dimethyl-1H-pyrrol-2-ylmethylene)-1,3-dihydro-indol-2-one]
- inhibition of the vascular endothelial growth factor receptor (Flk-1/KDR) [1]: highly active selective inhibitor

Compound: Cc1cc(C)c(/C=C2\C(=O)N(CO)c3ccccc32)[nH]1 [Example 1, (3Z)-3-[(3,5-dimethyl-1H-pyrrol-2-yl)-methylidene]-1-(hydroxymethyl)-1,3-dihydro-2H-indol-2-one]
- melting point: 200 to 202 °C

Compound: Cc1cc(C)c(/C=C2\C(=O)N(COC(=O)CCC(=O)O)c3ccccc32)[nH]1 [Example 3, 4-({(3Z)-3-[(3,5-dimethyl-1H-pyrrol-2-yl)-methylidene]-2-oxo-2,3-dihydro-1H-indol-1-yl}methoxy)-4-oxobutanoic acid]
- melting point: 160 to 162 °C

Compound: CC(=O)OC(C)N1C(=O)/C(=C\c2[nH]c(C)cc2C)c2ccccc21 (stereo not shown) [Example 4, 1-{(3Z)-3-[(3,5-dimethyl-1H-pyrrol-2-yl)-methylidene]-2-oxo-2,3-dihydro-1H-indol-1-yl}ethyl acetate]
- melting point: 107 to 110 °C

Compound: Cc1cc(C)c(/C=C2\C(=O)N(CN3CCCC3)c3ccccc32)[nH]1 [Example 14, (3Z)-3-[(3,5-dimethyl-1H-pyrrol-2-yl)-methylidene]-1-(1-pyrrolidinylmethyl)-1,3-dihydro-2H-indol-2-one]
- prodrug converted into drug (area under the curve of drug concentration vs time) [2]: 80%
- half-life ([2]; dog): 7.3 min
- half-life ([3]; pH 7.2): 6.2 min
- half-life ([3]; pH 7.6): 6 min
- hydrolysis to 3-(3,5-dimethyl-1H-pyrrol-2-ylmethylene)-1,3-dihydro-indol-2-one ([3]; physiological pH): rapidly hydrolyses
- melting point: 129 to 132 °C
